According to patent US6897214B2, “Quinazoline derivatives” (Zeneca Limited, priority 1996, dated 2005):

Target: T1, EGF receptor tyrosine kinase (Homo sapiens, UniProt P00533)
T1 construct: Receptor tyrosine kinase was obtained in partially purified form from A-431 cells; endogenous in cells; host or cells: A-431 cells (human vulval carcinoma), solubilised membrane preparation
Experiment: Test (a): in vitro inhibition of the enzyme EGF receptor tyrosine kinase
Format: biochemical
Conditions: enzyme partially purified from A-431 cells
Experimental: (a) An in vitro assay which determines the ability of a test compound to inhibit the enzyme EGF receptor tyrosine kinase. Receptor tyrosine kinase was obtained in partially purified form from A-431 cells (derived from human vulval carcinoma) by the procedures described below which are related to those described by Carpenter et al, J. Biol. Chem., 1979, 254, 4884, Cohen et al., J. Biol. Chem., 1982, 257, 1523 and by Braun et al., J. Biol Chem., 1984, 259, 2051.
A-431 cells were grown to confluence using Dulbecco's modified Eagle's medium DMEM) containing 5% fetal calf serum (FCS). The obtained cells were homogenised in a hypotonic borate/EDTA buffer at pH 10.1. The homogenate was centrifuged at 400 g for 10 minutes at 0-4° C. The supernatant was centrifuged at 25,000 g for 30 minutes at 0-4° C. […]
The test compound/EGF mixture solution (5 μl) was added to the test enzyme solution (10 μl) and the mixture was incubated at 0-4° C. for 30 minutes. […] Radioactivity present in the filter paper was measured using a liquid scintillation counter (Sequence A). […]
Receptor tyrosine kinase inhibition was calculated as follows: [formula]
The extent of inhibition was then determined at a range of concentrations of test compound to give an IC50 value.

T1 sequence (P00533 25-1210): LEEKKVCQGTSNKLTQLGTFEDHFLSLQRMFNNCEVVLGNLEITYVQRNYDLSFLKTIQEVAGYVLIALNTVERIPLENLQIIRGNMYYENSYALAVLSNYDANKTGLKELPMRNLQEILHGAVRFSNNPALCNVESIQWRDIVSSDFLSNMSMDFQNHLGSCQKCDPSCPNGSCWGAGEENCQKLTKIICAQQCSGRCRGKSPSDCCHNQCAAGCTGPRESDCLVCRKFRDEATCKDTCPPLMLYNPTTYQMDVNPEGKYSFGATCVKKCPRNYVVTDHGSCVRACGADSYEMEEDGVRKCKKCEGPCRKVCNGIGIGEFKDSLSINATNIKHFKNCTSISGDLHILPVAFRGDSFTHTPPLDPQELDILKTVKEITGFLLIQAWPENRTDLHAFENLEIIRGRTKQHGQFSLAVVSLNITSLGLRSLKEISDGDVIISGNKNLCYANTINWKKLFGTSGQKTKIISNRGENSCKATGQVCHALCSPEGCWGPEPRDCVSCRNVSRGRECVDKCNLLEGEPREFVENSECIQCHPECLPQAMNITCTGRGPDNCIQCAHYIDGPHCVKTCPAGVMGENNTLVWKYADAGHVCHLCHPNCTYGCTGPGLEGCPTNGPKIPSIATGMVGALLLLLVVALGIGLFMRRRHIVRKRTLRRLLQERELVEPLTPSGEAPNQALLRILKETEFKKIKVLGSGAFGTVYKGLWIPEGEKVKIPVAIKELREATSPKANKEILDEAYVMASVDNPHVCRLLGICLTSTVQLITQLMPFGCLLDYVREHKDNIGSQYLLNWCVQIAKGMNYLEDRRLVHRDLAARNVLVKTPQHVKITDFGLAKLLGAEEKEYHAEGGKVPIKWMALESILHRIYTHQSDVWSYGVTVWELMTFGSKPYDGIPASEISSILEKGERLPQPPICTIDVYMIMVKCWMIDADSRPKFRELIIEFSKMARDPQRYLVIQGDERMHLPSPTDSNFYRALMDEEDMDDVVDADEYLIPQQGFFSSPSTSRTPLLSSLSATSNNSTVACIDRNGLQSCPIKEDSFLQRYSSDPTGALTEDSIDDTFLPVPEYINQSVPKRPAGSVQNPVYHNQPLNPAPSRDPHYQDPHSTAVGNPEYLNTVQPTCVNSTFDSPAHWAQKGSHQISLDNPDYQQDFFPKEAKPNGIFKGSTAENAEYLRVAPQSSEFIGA

Structure (SMILES) | IC50 [µM]
Fc1ccc(Nc2ncnc3ccc(-c4ccc(CCN5CCOCC5)s4)cc23)cc1Cl [Example 8, 4-(3-chloro-4-fluoroanilino)-6-[5-(2-morpholinoethyl)thien-2-yl]quinazoline] | 0.04

Tested on: human naso-pharyngeal cancer cell line KB
Experiment: Test (b): in vitro inhibition of EGF-stimulated growth of KB cells
Format: cell-based
Conditions: EGF (10 ng/ml) stimulated growth, MTT
Experimental: (b) An in vitro assay which determines the ability of a test compound to inhibit the EGF-stimulated growth of the human naso-pharyngeal cancer cell line KB.
KB cells were seeded into wells at a density of 1×10^4-1.5×10^4 cells per well and grown for 24 hours in DMEM supplemented with 5% FCS (charcoal-stripped). Cell growth was determined after. incubation for 3 days by the extent of metabolism of MTT tetrazolium dye to furnish a bluish colour. Cell growth was then determined in the presence of EGF (10 ng/ml) or in the presence of EGF (10 ng/ml) and a test compound at a range of concentrations. An IC50 value could then be calculated.

Structure (SMILES) | IC50 [µM]
Fc1ccc(Nc2ncnc3ccc(-c4ccc(CCN5CCOCC5)s4)cc23)cc1Cl [Example 8, 4-(3-chloro-4-fluoroanilino)-6-[5-(2-morpholinoethyl)thien-2-yl]quinazoline] | 0.19

Tested on: xenografts of the human vulval epidermoid carcinoma cell line A-431
Experiment: Test (d): in vivo inhibition of growth of A-431 xenografts in athymic nude mice
Conditions: dosage of 50 mg/kg/day
Experimental: (d) An in-vivo assay in a group of athymic nude mice (strain ONU:Alpk) which determines the ability of a test compound (usually administered orally as a ball-milled suspension in 0.5% polysorbate) to inhibit the growth of xenografts of the human vulval epidermoid carcinoma cell line A-431.
A-431 cells were maintained in culture in DMEM supplemented with 5% FCS and 2 mM glutamine. Freshly cultured cells were harvested by trypsinization and injected subcutaneously (10 million cells/0.1 ml/mouse) into both flanks of a number of donor nude mice. When sufficient tumour material was available (after approximately 9 to 14 days), fragments of tumour tissue were transplanted into the flanks of recipient nude mice (test day 0). Generally, on the seventh day after transplantation (test day 7) groups of 7 to 10 mice with similar-sized tumours were selected and dosing of the test compound was commenced. Once-daily dosing of test compound was continued for a total of 13 days (test days 7 to 19 inclusive). In some studies the dosing of the test compound was continued beyond test day 19, for example to test day 26. In each case, on the following day the animals were killed and final tumour volume was calculated from measurements of the length and width of the tumours. Results were calculated as a percentage inhibition of tumour volume relative to untreated controls.

Structure (SMILES) | inhibition in Test (d) (tumour volume relative to untreated controls) [%]
Fc1ccc(Nc2ncnc3ccc(-c4ccc(CCN5CCOCC5)s4)cc23)cc1Cl [Example 8, 4-(3-chloro-4-fluoroanilino)-6-[5-(2-morpholinoethyl)thien-2-yl]quinazoline] | 64

Tested on: not given
Experiment: not given
Conditions: not given

Structure (SMILES) | melting point [°C]
Cc1cc(Nc2ncnc3ccc(-c4cccs4)cc23)ccc1OCc1ccccn1 [Example 38, 4-[3-methyl-4-(2-pyridylmethoxy)anilino]-6-(2-thienyl)-quinazoline] | 205 to 206
Cc1cccc(Nc2ncnc3ccc(CSc4c[nH]nn4)cc23)c1 [Example 34, 4-(3-methylanilino)-6-(1,2,3-triazol-4-ylthiomethyl)quinazoline] | 64 to 68
Fc1ccc(Nc2ncnc3ccc(-c4cccs4)cc23)cc1Cl [Example 6, 4-(3-chloro-4-fluoroanilino)-6-(2-thienyl)quinazoline] | 205 to 208
Fc1ccc(Nc2ncnc3ccc(-c4ccco4)cc23)cc1Cl [Example 5, 4(3-chloro-4-fluoroanilino)-6-(2-furyl)quinazoline] | 232 to 234
Cc1cccc(Nc2ncnc3ccc(NS(=O)(=O)c4cn(C)cn4)cc23)c1 [Example 15, 4-(3-methylanilino)-6-(1-methylimidazole-4-sulphonamido)quinazoline] | > 250
Cc1cc(Nc2ncnc3ccc(-c4ccoc4)cc23)ccc1OCc1ccccn1 [Example 39, 6-(3-furyl)-4-[3-methyl-4-(2-pyridylmethoxy)anilino]-quinazoline] | 206 to 208
Cc1cccc(Nc2ncnc3ccc(CSc4nc5ccccc5[nH]4)cc23)c1 [Example 37, 6-(2-benzimidazolylthiomethyl)-4-(3-methylanilino)quinazoline] | 123 to 129
Fc1ccc(Nc2ncnc3ccc(NCc4cccs4)cc23)cc1Cl [Example 19, 4-(3-chloro-4-fluoroanilino)-6-(2-thienylmethylamino)quinazoline] | 193 to 195
CNc1cc2ncnc(Nc3ccc(F)c(Cl)c3)c2cc1NC(=O)c1cccnc1 [Example 24, 4-(3-chloro-4-fluoroanilino)-7-methylamino-6-(pyridine-3-carboxamido)quinazoline] | > 260
Cc1cccc(Nc2ncnc3ccc(CSc4nccn4C)cc23)c1 [Example 35, 4-(3-methylanilino)-6-(N-methylimidazol-2-ylthiomethyl)quinazoline] | 137 to 139
Cl.O=C(Nc1ccc2ncnc(Nc3ccc(F)c(Cl)c3)c2c1)c1ccno1 | > 250
Cc1cccc(Nc2ncnc3ccc(Nc4ncc[nH]4)cc23)c1 [Example 14, 6-(2-imidazolylamino)-4-(3-methylanilino)quinazoline] | 256 to 258
Cl.O=C(Nc1ccc2ncnc(Nc3ccc(F)c(Cl)c3)c2c1)c1cccs1 | > 250
Cc1cccc(Nc2ncnc3ccc(-c4ccccc4)cc23)c1 [Example 2, 4-(3-methylanilino)-6-phenylquinazoline] | 207 to 209
N#Cc1ccc(-c2ccc3ncnc(Nc4ccc(F)c(Cl)c4)c3c2)cc1 [Example 1, 4-(3-chloro-4-fluoroanilino)-6-(4-cyanophenyl)quinazoline] | > 250
Cc1cccc(Nc2ncnc3ccc(CSc4ncc[nH]4)cc23)c1 [Example 36, 6-(2-imidazolylthiomethyl)-4-(3-methylanilino)-quinazoline] | 217 to 219
Fc1ccc(Nc2ncnc3ccc(-c4ccsc4)cc23)cc1Cl [Example 7, 4-(3-chloro-4-fluoroanilino)-6-(3-thienyl)quinazoline] | 195 to 197
Cc1cccc(Nc2ncnc3ccc(NCc4ccsc4)cc23)c1 [Example 16, 4-(3-methylanilino)-6-(3-thienylmethylamino)quinazoline] | 207 to 208

Tested on: transplanted human mammary carcinoma
Experiment: not given
Conditions: carcinoma which does not express EGF receptor tyrosine kinase; cited from earlier work

Structure (SMILES) | growth of another carcinoma
O=CN/C=C/c1cc(O)ccc1O [erbstatin] | without effect on the growth

Same assay, conditions: carcinoma which expresses EGF receptor tyrosine kinase; athymic nude mice; cited from earlier work

Structure (SMILES) | growth of transplanted human mammary carcinoma
O=CN/C=C/c1cc(O)ccc1O [erbstatin] | specifically attenuates the growth
